Experimental data taken from ChEMBL document CHEMBL5728856, “Anilinopyrimidines as haematopoietic progenitor kinase 1 (HPK1) inhibitors” (2021).
pIC50: −log10 of the molar value.

Target: Mitogen-activated protein kinase kinase kinase kinase 1 (Homo sapiens, UniProt Q92918)
Assay: Enzymatic Activity Assay: The enzymatic activity of Wild Type HPK1 (MAP4K1) Kinase was measured in the presence or absence of an inhibitor compound of the present disclosure by preparation of a reaction mixture containing a fluorescein tagged peptide (2 micromolar final concentration), ATP (Adenosine Triphosphate, 500 micromolar final concentration) and Wild Type kinase (6 nM final concentration) in a buffer system comprising 50 mM HEPES (Buffer), 3 mM MgCl2, 5% w/v Trehalose, 0.01% Brij 35 (Detergent), 0.1% Pluronic F127 (Surfactant), 0.1 mM EDTA (Ethylenediaminetetraacetic acid), 0.1 mM EGTA (ethylene glycol-bis(β-aminoethyl ether)-N,N,N′,N′-tetraacetic acid) and 1 mM DTT (Dithiothreitol) and at a pH of 7.4. The reactions were quenched by the addition of EDTA to a final concentration of 25 mM. A Caliper EZ reader was used to measure the extent of substrate to product conversion.The peptide substrate used in the HPK1 assay was designed based on the amino acid sequence surrounding serine residue 376 of SLP76-Lymphocyte cytosolic protein 2 (a known intracellular substrate of HPK1). […]
Type: cell-based

Mitogen-activated protein kinase kinase kinase kinase 1, sequence (Q92918 whole entry): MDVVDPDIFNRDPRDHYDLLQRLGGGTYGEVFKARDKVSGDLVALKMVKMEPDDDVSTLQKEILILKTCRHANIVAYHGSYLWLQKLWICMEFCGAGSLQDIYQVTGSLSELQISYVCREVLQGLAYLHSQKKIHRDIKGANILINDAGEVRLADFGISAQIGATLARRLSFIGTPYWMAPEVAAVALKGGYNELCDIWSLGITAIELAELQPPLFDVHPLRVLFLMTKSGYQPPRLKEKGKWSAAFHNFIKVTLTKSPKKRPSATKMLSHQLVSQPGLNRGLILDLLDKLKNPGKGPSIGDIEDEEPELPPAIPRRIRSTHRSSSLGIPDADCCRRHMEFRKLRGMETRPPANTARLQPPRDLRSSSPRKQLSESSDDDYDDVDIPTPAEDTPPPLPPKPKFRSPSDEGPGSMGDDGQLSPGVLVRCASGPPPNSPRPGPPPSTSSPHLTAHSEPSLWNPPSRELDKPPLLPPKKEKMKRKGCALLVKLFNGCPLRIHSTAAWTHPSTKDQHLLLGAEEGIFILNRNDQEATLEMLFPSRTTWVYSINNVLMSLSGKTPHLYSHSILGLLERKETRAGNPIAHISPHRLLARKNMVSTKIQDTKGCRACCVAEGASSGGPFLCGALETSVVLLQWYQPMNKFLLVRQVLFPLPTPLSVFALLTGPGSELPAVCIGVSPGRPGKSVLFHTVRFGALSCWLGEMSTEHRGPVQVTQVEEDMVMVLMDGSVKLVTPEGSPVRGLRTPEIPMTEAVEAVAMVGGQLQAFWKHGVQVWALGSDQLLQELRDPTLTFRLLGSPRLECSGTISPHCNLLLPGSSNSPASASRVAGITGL

Question: How did the pIC50 turn out when `CN1CCc2cc(Nc3ncc(Cl)c(Nc4ccccc4P(C)(C)=O)n3)c(Cl)cc2C1` was run?
Answer: > 8.30
